Data taken from PubChem BioAssay (NCI).
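Step 1: Grow cells in 96-well plates. Step 2: Expose to compound for 48 hours at 5 concentrations. Step 3: Interpolate endpoints linearly; if unreached, use highest concentration. At the GI50, growth is halved. TGI is the concentration that stops growth completely.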

Key:
Assay in all cases: NCI-60 cell line screen, 48 h
SK-MEL-5 melanoma = system: SK-MEL-5 melanoma
EKVX NSCLC = system: EKVX NSCLC
SK-MEL-2 melanoma = system: SK-MEL-2 melanoma
HOP-92 NSCLC = system: HOP-92 NSCLC
NCI-H226 lung = system: NCI-H226 lung
HL-60(TB) leukemia = system: HL-60(TB) leukemia
MALME-3M melanoma = system: MALME-3M melanoma
MDA-MB-435 = system: MDA-MB-435
UACC-62 melanoma = system: UACC-62 melanoma
DU-145 prostate = system: DU-145 prostate
NCI-H460 lung = system: NCI-H460 lung
SF-268 CNS = system: SF-268 CNS
CCRF-CEM leukemia = system: CCRF-CEM leukemia
OVCAR-5 ovarian = system: OVCAR-5 ovarian
NCI-H23 lung = system: NCI-H23 lung
PC-3 prostate = system: PC-3 prostate
LOX IMVI melanoma = system: LOX IMVI melanoma
OVCAR-3 ovarian = system: OVCAR-3 ovarian
SF-295 CNS = system: SF-295 CNS
A549 NSCLC = system: A549 NSCLC
IGROV1 ovarian = system: IGROV1 ovarian
K-562 leukemia = system: K-562 leukemia
RXF 393 renal = system: RXF 393 renal
COLO 205 colon = system: COLO 205 colon
UACC-257 melanoma = system: UACC-257 melanoma
TK-10 renal = system: TK-10 renal
SR leukemia = system: SR leukemia
MCF7 breast = system: MCF7 breast
OVCAR-4 ovarian = system: OVCAR-4 ovarian
SF-539 CNS = system: SF-539 CNS
BT-549 breast = system: BT-549 breast
SW-620 colon = system: SW-620 colon
U251 CNS = system: U251 CNS
HS 578T breast = system: HS 578T breast
HOP-62 NSCLC = system: HOP-62 NSCLC
NCI-H522 lung = system: NCI-H522 lung
HCT-116 colon = system: HCT-116 colon
NCI/ADR-RES ovarian = system: NCI/ADR-RES ovarian
HCT-15 colon = system: HCT-15 colon
SK-MEL-28 melanoma = system: SK-MEL-28 melanoma
MOLT-4 leukemia = system: MOLT-4 leukemia
ACHN renal = system: ACHN renal
OVCAR-8 ovarian = system: OVCAR-8 ovarian
786-0 renal = system: 786-0 renal
HCC-2998 colon = system: HCC-2998 colon
UO-31 renal = system: UO-31 renal
CAKI-1 renal = system: CAKI-1 renal
MDA-MB-231 breast = system: MDA-MB-231 breast
M14 melanoma = system: M14 melanoma
SK-OV-3 ovarian = system: SK-OV-3 ovarian
SN12C renal = system: SN12C renal
SNB-75 CNS = system: SNB-75 CNS
HT29 colon = system: HT29 colon
SNB-19 CNS = system: SNB-19 CNS
A498 renal = system: A498 renal
RPMI-8226 leukemia = system: RPMI-8226 leukemia
T-47D breast = system: T-47D breast
KM12 colon = system: KM12 colon

## O=C(CC1(O)C(=O)N(Cc2ccccc2)c2ccc(Br)cc21)c1ccc(C(=O)NCC2CCC3(CC2)OOC2(CCCCC2)OO3)cc1 (stereo unspecified)
SK-MEL-5 melanoma
  GI50: 3010 nM
  TGI: 10000 nM
EKVX NSCLC
  GI50: 437 nM
  TGI: 1590 nM
SK-MEL-2 melanoma
  GI50: 3690 nM
  TGI: 13200 nM
HOP-92 NSCLC
  GI50: 213 nM
  TGI: 468 nM
NCI-H226 lung
  GI50: 5060 nM
  TGI: 19300 nM
HL-60(TB) leukemia
  GI50: 330 nM
  TGI: 1120 nM
MALME-3M melanoma
  GI50: 594 nM
  TGI: 2050 nM
MDA-MB-435
  GI50: 647 nM
  TGI: 1930 nM
UACC-62 melanoma
  GI50: 11200 nM
  TGI: > 59000 nM
DU-145 prostate
  GI50: 191 nM
  TGI: 354 nM
NCI-H460 lung
  GI50: 488 nM
  TGI: 1660 nM
SF-268 CNS
  GI50: 2030 nM
  TGI: 6740 nM
CCRF-CEM leukemia
  GI50: 350 nM
  TGI: 1110 nM
OVCAR-5 ovarian
  GI50: 1580 nM
  TGI: 15600 nM
NCI-H23 lung
  GI50: 237 nM
  TGI: 595 nM
PC-3 prostate
  GI50: 1730 nM
  TGI: 12500 nM
LOX IMVI melanoma
  GI50: 152 nM
  TGI: 304 nM
OVCAR-3 ovarian
  GI50: 435 nM
  TGI: 1520 nM
SF-295 CNS
  GI50: 794 nM
  TGI: 2460 nM
A549 NSCLC
  GI50: 224 nM
  TGI: 496 nM
IGROV1 ovarian
  GI50: 278 nM
  TGI: 799 nM
K-562 leukemia
  GI50: 1690 nM
  TGI: 8280 nM
RXF 393 renal
  GI50: 554 nM
  TGI: 1290 nM
COLO 205 colon
  GI50: 2040 nM
  TGI: 5950 nM
UACC-257 melanoma
  GI50: 16100 nM
  TGI: > 100000 nM
TK-10 renal
  GI50: 350 nM
  TGI: 989 nM
SR leukemia
  GI50: 216 nM
  TGI: 981 nM
MCF7 breast
  GI50: 2650 nM
  TGI: > 87900 nM
OVCAR-4 ovarian
  GI50: 3810 nM
  TGI: 16300 nM
SF-539 CNS
  GI50: 322 nM
  TGI: 988 nM
BT-549 breast
  GI50: 3260 nM
  TGI: 20100 nM
SW-620 colon
  GI50: 2890 nM
  TGI: 10100 nM
U251 CNS
  GI50: 301 nM
  TGI: 920 nM
HS 578T breast
  GI50: 2930 nM
  TGI: 15900 nM
HOP-62 NSCLC
  GI50: 237 nM
  TGI: 619 nM
NCI-H522 lung
  GI50: 214 nM
  TGI: 556 nM
HCT-116 colon
  GI50: 2080 nM
  TGI: 8180 nM
NCI/ADR-RES ovarian
  GI50: 583 nM
  TGI: 1810 nM
HCT-15 colon
  GI50: 1150 nM
  TGI: 4670 nM
SK-MEL-28 melanoma
  GI50: 17000 nM
  TGI: > 100000 nM
MOLT-4 leukemia
  GI50: 1980 nM
  TGI: 6540 nM
ACHN renal
  GI50: 239 nM
  TGI: 598 nM
OVCAR-8 ovarian
  GI50: 285 nM
  TGI: 1010 nM
786-0 renal
  GI50: 173 nM
  TGI: 334 nM
HCC-2998 colon
  GI50: 2190 nM
  TGI: 5100 nM
UO-31 renal
  GI50: 187 nM
  TGI: 363 nM
CAKI-1 renal
  GI50: 557 nM
  TGI: 1060 nM
MDA-MB-231 breast
  GI50: 549 nM
  TGI: 2030 nM
M14 melanoma
  GI50: 4310 nM
  TGI: 30600 nM
SK-OV-3 ovarian
  GI50: 7260 nM
  TGI: > 24200 nM
SN12C renal
  GI50: 1160 nM
  TGI: 3180 nM
SNB-75 CNS
  GI50: 1530 nM
  TGI: 6020 nM
HT29 colon
  GI50: 615 nM
  TGI: 2060 nM
SNB-19 CNS
  GI50: 8130 nM
  TGI: > 100000 nM
A498 renal
  GI50: 2220 nM
  TGI: 6860 nM
RPMI-8226 leukemia
  GI50: 830 nM
  TGI: 3690 nM
T-47D breast
  GI50: 1300 nM
  TGI: 6280 nM
KM12 colon
  GI50: 435 nM
  TGI: 1700 nM
